According to patent publication US6433012B1, “Method for inhibiting inflammatory disease” (Large Scale Biology Corp., priority 1998, dated 2002):

Experiments:
MCF-7 cells [1] = assay: Trypan blue exclusion assay (loss of membrane integrity); assay type: cell-based; details: 1 μM, 48 h of exposure
[2] = system: TNF-α mRNA in murine macrophage PU5-1.8 cell line; assay: TNF-α mRNA in LPS-stimulated macrophages (Northern blot); assay type: cell-based
Protocol: The murine macrophage PU5-1.8 cell line was purchased from the American Type Culture Collection (ATCC, Rockville, Md.). Cells were grown in DMEM medium supplemented with […], 0.1 mM nonessential amino acids, 2 mM glutamine and 5% fetal bovine serum (Life Technologies, Staten Island, N.Y.). Cells were maintained in a humidified atmosphere of 5% CO2-95% air at 37° C. Cells were passages twice weekly by firmly tapping the side of the flask to dislodge the adherent cells. Both nonadherent and adherent cells were passages. Exponentially growing cells were seeded at 5×10 ^5/mL, 4mL per 60-mm dish 24 h prior to the experiment. Test compounds were delivered in 1 mL volumes of the medium added to each dish at the start of the experiment. All dishes were incubated at 37° C. in 5% CO2-95% air for 3 h.
Total RNA was isolated by the guanidinium-cesium chloride method as described in N. S. Waleh, J. Gallo, T. D. Grant, B. J. Murphy, R. H. Kramer and R. M. Sutherland. (1994) “Selective downregulation of integrin receptors in spheroids of squamous cell carcinoma” Cancer Res., 54:838-843. Five to 10 μg of total RNA was electrophoresed in 1% agarose gels containing 6% formaldehyde. Following electrophoresis, gels were stained with ethidium bromide to visualize the positions of 28S and 18S RNA. The RNAs were then transferred to nylon membranes (Amersham Hybond N) by capillary blotting and fixed to the filter by exposure to UV light. The blots were probed with ^32P-labeled cDNA sequences of human TNF-α obtained from the American Type Culture Collection (ATCC). The TNF-α cDNA was a 1.1 kb PstI fragment of plasmid pE4 in E. coli MM294 (ATCC 39894). Hybridizations were carried out at 42° C. in 50% formamide, 5×SSC, 5×Denhardt's solution, 0.1% SDS, and 0.3 mg/mL salmon sperm DNA. Filters were washed by 1×SSC, 0.1% SDS, twice at room temperature for 15 min and once at 55° C. in 0.1×SSC, 0.1% SDS for 1 hr. Filters were exposed to X-ray film at −70° C. using an intensifying screen (Coronex Hi-Plus).
Hybridized bands were quantified by analyzing the images obtained by using a video densitometer (Applied Imaging Corporation, Santa Clara, Calif.). Film densities were calibrated using an optical-density wedge.

[3] = Bone marrow toxicity, histological examination; assay type: in vivo; details: 500 mg/kg-day by gavage for 4 weeks
Protocol: Swiss Webster mice were exposed to the drug at 500 mg/kg-day by gavage for a period of 4 weeks, and bone marrow was examined histologically.

MDA MB-231 cell cultures = assay: Cytotoxicity in vitro (reduction of cell number); assay type: cell-based; details: Homo sapiens, treated for 48 h, read-out: IC50 (50% reduction of cell number relative to vehicle-treated control)
[4] = system: MCF-7 human breast carcinoma cells; assay: Chromosome condensation / prometaphase arrest; assay type: cell-based; details: 1 μM for 24 h
[5] = system: OVCAR-3 human ovarian carcinoma xenografts; assay: Tumor growth delay, OVCAR-3 xenografts; assay type: in vivo, nude mice; details: oral treatment, at 5 weeks
Protocol: Intraperitoneally administered cyclophosphamide (CTX; Cytoxan; 150 mg/kg), which is used in some regimens for adjuvant breast cancer therapy was used as a positive control.

MCF-7 cells [6] = assay: Flow cytometry, cell-cycle progression; assay type: cell-based, human; details: 1 μM, within 24 h
From the text: Such arrested cells eventually undergo cell death which can occur by an apoptotic mechanism.

COC(=O)c1cc(I)c(Oc2ccc(OC)cc2)c(I)c1 [BTO-956, methyl-3,5-diiodo-4-(4′-methoxyphenoxy)benzoate]
cytotoxicity by loss of membrane integrity (trypan blue exclusion) (MCF-7 cells [1]): substantial cytotoxicity | inhibition of TNF-α mRNA accumulation ([2]; 10 μM added to LPS (100 ng/mL) treated cultures, 3 h): 61% | effect on TNF-α mRNA expression, compound only ([2]; 10 μM, without LPS, 3 h): no effect | total RNA integrity ([2]; cells treated with different concentrations): intact | amounts of TNF-α mRNA, concentration-effect relationship ([2]; various concentrations with LPS for 3 h): declined with the increasing concentrations | bone marrow profiles [3]: did not differ from those of control animals | hematopoietic abnormalities [3]: no hematopoietic abnormalities | IC50 (MDA MB-231 cell cultures): 0.3 µM | chromosome condensation (prometaphase arrest) [4]: A large fraction of these cells showed chromosome condensation characteristic of a prometaphase arrest | relative mean tumor volume, fold less than vehicle-treated controls [5]: approximately 5 fold | cells arrested at G2/M (MCF-7 cells [6]): at least 60%
